In patent US12391737B2, “Soluble NPY2 receptor agonists” (Boehringer Ingelheim International GmbH, priority 2020, dated 2025):

Legend:
[1] = target: T1, Human Neuropeptide Y2 Receptor (Homo sapiens, UniProt P49146); experiment: Radioligand binding competition assay (RLB); settings: Table 3, 125I-PYY(1-36) competition; read-out: Ki
T1 construct: purchased CHEMICON HTS066M
T1 sequence (P49146 1-381): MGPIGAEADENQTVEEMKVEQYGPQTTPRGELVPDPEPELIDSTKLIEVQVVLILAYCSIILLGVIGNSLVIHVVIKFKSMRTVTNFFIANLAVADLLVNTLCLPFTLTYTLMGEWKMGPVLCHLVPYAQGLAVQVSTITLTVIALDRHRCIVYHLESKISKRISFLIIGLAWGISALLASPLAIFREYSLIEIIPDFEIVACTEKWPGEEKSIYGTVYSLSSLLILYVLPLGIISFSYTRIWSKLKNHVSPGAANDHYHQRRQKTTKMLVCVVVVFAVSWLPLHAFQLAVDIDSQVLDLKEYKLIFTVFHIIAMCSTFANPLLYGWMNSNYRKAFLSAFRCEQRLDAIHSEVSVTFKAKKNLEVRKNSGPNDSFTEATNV
Summary of the method: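 Filtration binding assay on human Y2 receptor membrane preparation, 0.5 μg protein per well, in 50 mM HEPES pH 7.4 containing 5 mM MgCl2, 1 mM CaCl2 and 0.2% ovalbumin. Plates shake 2 h at room temperature before harvest and scintillation counting.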

Solubility determination = settings: for Sol6: pH 6; for Sol7: pH 7
Summary of the method: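 Shake-flask style: 10 mg/ml peptide (TFA salt), 0.1 M sodium diphosphate pH 6.4/7.0, 600 rpm, 2 h, RT; filter; dilute 1 mg/ml in 50% MeCN; RP-UPLC, 0–100% B over 2 min, 50 °C. Solubility = sample/control area ratio. Final pH recorded.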

Question: For `CC[C@H](C)[C@H](NC(=O)[C@H](Cc1ccc(O)cc1)NC(=O)[C@H](Cc1ccc(O)cc1)NC(=O)[C@H](CCCNC(=N)N)NC(=O)[C@H](CCC(N)=O)NC(=O)[C@H](CC(C)C)NC(=O)[C@H](CCC(=O)O)NC(=O)[C@H](CCC(=O)O)NC(=O)[C@@H]1CCCN1C(=O)[C@@H](NC(=O)[C@H](C)NC(=O)[C@H](CC(=O)O)NC(=O)[C@H](C)NC(=O)[C@H](CCC(=O)O)NC(=O)[C@@H]1CCCN1C(=O)[C@H](CCCCNC(=O)CCCCCNC(=O)CC[C@H](NC(=O)CCCCCCCCCCCCCCCCC(=O)O)C(=O)O)NC(=O)[C@H](CCC(=O)O)NC(=O)[C@@H]1CCCN1C(=O)[C@H](C)NC(=O)CC(C)C)[C@@H](C)O)C(=O)N[C@@H](C)C(=O)N[C@@H](CC(C)C)C(=O)N[C@@H](CCCNC(=N)N)C(=O)N[C@@H](Cc1c[nH]cn1)C(=O)N[C@@H](Cc1ccc(O)cc1)C(=O)N[C@@H](Cc1ccc(O)cc1)C(=O)N[C@@H](CC(N)=O)C(=O)N[C@@H](Cc1c[nH]c2ccccc12)C(=O)N[C@@H](CC(C)C)C(=O)N[C@H](C(=O)N[C@@H](CCCNC(=N)N)C(=O)N[C@@H](CCC(N)=O)C(=O)N[C@@H](CCCNC(=N)N)C(=O)N[C@@H](Cc1ccc(O)cc1)C(N)=O)[C@@H](C)O` [Compound 100, N{alpha-4}-(3-methylbutanoyl)-N{epsilon-7}-(6-[(4S)-4-carboxy-4-(17-carboxyheptadecanamido)butanamido]hexanoyl)-[4A,7K,9E,10A,13T,18Q,22I,23A,28Y,30W,31L]-hPYY(4-36)], which Ki [1] is on record?
Answer: The Ki was 1.01 nM.

Question: And the “Sol6” value (Solubility determination)?
Answer: Its value is 9.8 mg/mL.

Question: And the “Sol7” value (Solubility determination)?
Answer: Its value is 5.7 mg/mL.

Question: Which Ki [1] does the source give for `CC(C)CC(=O)N[C@@H](C)C(=O)N1CCC[C@H]1C(=O)N[C@@H](CCC(=O)O)C(=O)N[C@@H](CCCCNC(=O)CCCCCNC(=O)CC[C@H](NC(=O)CCCCCCCCCCCCCCCCC(=O)O)C(=O)O)C(=O)N1CCC[C@H]1C(=O)N[C@@H](CCC(=O)O)C(=O)N[C@@H](CCC(=O)O)C(=O)N[C@@H](CC(=O)O)C(=O)N[C@@H](C)C(=O)N[C@H](C(=O)N1CCC[C@H]1C(=O)N[C@@H](CCC(=O)O)C(=O)N[C@@H](CCC(=O)O)C(=O)N1CCC[C@H]1C(=O)N[C@@H](CCC(N)=O)C(=O)N[C@@H](CCCNC(=N)N)C(=O)N[C@@H](Cc1ccc(O)cc1)C(=O)N[C@@H](Cc1ccc(O)cc1)C(=O)N[C@H](C(=O)N[C@@H](CO)C(=O)N[C@@H](CC(C)C)C(=O)N[C@@H](CCCNC(=N)N)C(=O)N[C@@H](Cc1c[nH]cn1)C(=O)N[C@@H](Cc1ccc(O)cc1)C(=O)N[C@@H](Cc1ccc(O)cc1)C(=O)N[C@@H](CC(N)=O)C(=O)N[C@@H](Cc1c[nH]c2ccccc12)C(=O)N[C@@H](CC(C)C)C(=O)N[C@H](C(=O)N[C@@H](CCCNC(=N)N)C(=O)N[C@@H](CCC(N)=O)C(=O)N[C@@H](CCCNC(=N)N)C(=O)N[C@@H](Cc1ccc(O)cc1)C(N)=O)[C@@H](C)O)C(C)C)[C@@H](C)O` [Compound 187, N{alpha-4}-(3-methylbutanoyl)-N{epsilon-7}-(6-[(4S)-4-carboxy-4-(17-carboxyheptadecanamido)butanamido]hexanoyl)-[4A,7K,9E,13T,17P,18Q,22V,28Y,30W,31L]-hPYY(4-36)] here?
Answer: The Ki was 15.3 nM.

Question: What about the “Sol6” value (Solubility determination) of the same molecule?
Answer: The value was 7.8 mg/mL.

Question: And the “Sol7” value (Solubility determination)?
Answer: Its value is over 10.0 mg/mL.

Question: Which results are given for `CC(C)CC(=O)N[C@@H](C)C(=O)N1CCC[C@H]1C(=O)N[C@@H](CCC(=O)O)C(=O)N[C@@H](CCCCNC(=O)CCCCCNC(=O)CC[C@H](NC(=O)CCCCCCCCCCCCCCCCC(=O)O)C(=O)O)C(=O)N1CCC[C@H]1C(=O)N[C@@H](CCC(=O)O)C(=O)N[C@@H](CCC(=O)O)C(=O)N[C@@H](CC(=O)O)C(=O)N[C@@H](C)C(=O)N[C@H](C(=O)N1CCC[C@H]1C(=O)N[C@@H](CCC(=O)O)C(=O)N[C@@H](CCC(=O)O)C(=O)N[C@@H](CC(C)C)C(=O)N[C@@H](CCC(N)=O)C(=O)N[C@@H](CCCNC(=N)N)C(=O)N[C@@H](Cc1ccc(O)cc1)C(=O)N[C@@H](Cc1ccc(O)cc1)C(=O)N[C@H](C(=O)N[C@@H](CO)C(=O)N[C@@H](CC(C)C)C(=O)N[C@@H](CCCNC(=N)N)C(=O)N[C@@H](Cc1c[nH]cn1)C(=O)N[C@@H](Cc1ccc(O)cc1)C(=O)N[C@@H](Cc1ccc(O)cc1)C(=O)N[C@@H](CC(N)=O)C(=O)N[C@@H](Cc1c[nH]c2ccccc12)C(=O)N[C@@H](CC(C)C)C(=O)N[C@@H](CCC(N)=O)C(=O)N[C@@H](CCCNC(=N)N)C(=O)N[C@@H](CCC(N)=O)C(=O)N[C@@H](CCCNC(=N)N)C(=O)N[C@@H](Cc1ccc(O)cc1)C(N)=O)C(C)C)[C@@H](C)O` [Compound 188, N{alpha-4}-(3-methylbutanoyl)-N{epsilon-7}-(6-[(4S)-4-carboxy-4-(17-carboxyheptadecanamido)butanamido]hexanoyl)-[4A,7K,9E,13T,18Q,22V,28Y,30W,31L,32Q]-hPYY(4-36)]?
Answer: Ki [1]: 5.46 nM; Sol6 (Solubility determination): 9.5 mg/mL; Sol7 (Solubility determination): 9.8 mg/mL

Question: Which results are given for `CC(C)CC(=O)N[C@@H](C)C(=O)N1CCC[C@H]1C(=O)N[C@@H](CCC(=O)O)C(=O)N[C@@H](CCCCNC(=O)CCCCCNC(=O)CC[C@H](NC(=O)CCCCCCCCCCCCCCCCC(=O)O)C(=O)O)C(=O)N1CCC[C@H]1C(=O)N[C@@H](CCC(=O)O)C(=O)N[C@@H](CCC(=O)O)C(=O)N1CCC[C@H]1C(=O)N[C@@H](C)C(=O)N[C@H](C(=O)N1CCC[C@H]1C(=O)N[C@@H](CCC(=O)O)C(=O)N[C@@H](CCC(=O)O)C(=O)N[C@@H](CC(C)C)C(=O)N[C@@H](CCC(N)=O)C(=O)N[C@@H](CCCNC(=N)N)C(=O)N[C@@H](Cc1ccc(O)cc1)C(=O)N[C@@H](Cc1ccc(O)cc1)C(=O)N[C@H](C(=O)N[C@@H](CO)C(=O)N[C@@H](CC(C)C)C(=O)N[C@@H](CCCNC(=N)N)C(=O)N[C@@H](Cc1c[nH]cn1)C(=O)N[C@@H](Cc1ccc(O)cc1)C(=O)N[C@@H](Cc1ccc(O)cc1)C(=O)N[C@@H](CC(N)=O)C(=O)N[C@@H](Cc1c[nH]c2ccccc12)C(=O)N[C@@H](CC(C)C)C(=O)N[C@H](C(=O)N[C@@H](CCCNC(=N)N)C(=O)N[C@@H](CCC(N)=O)C(=O)N[C@@H](CCCNC(=N)N)C(=O)N[C@@H](Cc1ccc(O)cc1)C(N)=O)[C@@H](C)O)C(C)C)[C@@H](C)O` [Compound 42, N{alpha-4}-(3-methylbutanoyl)-N{epsilon-7}-(6-[(4S)-4-carboxy-4-(17-carboxyheptadecanamido)butanamido]hexanoyl)[4A,7K,9E,11P,13T,18Q,22V,28Y,30W,31L]-hPYY(4-36)]?
Answer: Ki [1]: 1.98 nM; Sol6 (Solubility determination): 9.8 mg/mL; Sol7 (Solubility determination): 9.9 mg/mL

Question: For `CC(C)CC(=O)N[C@@H](C)C(=O)N1CCC[C@H]1C(=O)N[C@@H](CCC(=O)O)C(=O)N[C@@H](CCCCNC(=O)CCCCCNC(=O)CC[C@H](NC(=O)CCCCCCCCCCCCCCCCC(=O)O)C(=O)O)C(=O)N1CCC[C@H]1C(=O)N[C@@H](CCC(=O)O)C(=O)N[C@@H](CCC(=O)O)C(=O)N[C@@H](CC(=O)O)C(=O)N[C@@H](C)C(=O)N[C@H](C(=O)N1CCC[C@H]1C(=O)N[C@@H](CCC(=O)O)C(=O)N[C@@H](CCC(=O)O)C(=O)N[C@@H](CCC(N)=O)C(=O)N[C@@H](CCC(N)=O)C(=O)N[C@@H](CCCNC(=N)N)C(=O)N[C@@H](Cc1ccc(O)cc1)C(=O)N[C@@H](Cc1ccc(O)cc1)C(=O)N[C@H](C(=O)N[C@@H](CO)C(=O)N[C@@H](CC(C)C)C(=O)N[C@@H](CCCNC(=N)N)C(=O)N[C@@H](Cc1c[nH]cn1)C(=O)N[C@@H](Cc1ccc(O)cc1)C(=O)N[C@@H](Cc1ccc(O)cc1)C(=O)N[C@@H](CC(N)=O)C(=O)N[C@@H](Cc1c[nH]c2ccccc12)C(=O)N[C@@H](CC(C)C)C(=O)N[C@H](C(=O)N[C@@H](CCCNC(=N)N)C(=O)N[C@@H](CCC(N)=O)C(=O)N[C@@H](CCCNC(=N)N)C(=O)N[C@@H](Cc1ccc(O)cc1)C(N)=O)[C@@H](C)O)C(C)C)[C@@H](C)O` [Compound 134, N{alpha-4}-(3-methylbutanoyl)-N{epsilon-7}-(6-[(4S)-4-carboxy-4-(17-carboxyheptadecanamido)butanamido]hexanoyl)-[4A,7K,9E,13T,17Q,18Q,22V,28Y,30W,31L]-hPYY(4-36)], which Ki [1] is on record?
Answer: The Ki was 2.8 nM.

Question: And the “Sol6” value (Solubility determination)?
Answer: Its value is 10.0 mg/mL.

Question: And the “Sol7” value (Solubility determination)?
Answer: The value was 10.0 mg/mL.

Question: With `CC[C@H](C)[C@H](NC(=O)[C@H](CCC(=O)O)NC(=O)[C@H](CCC(=O)O)NC(=O)[C@@H]1CCCN1C(=O)[C@@H](NC(=O)[C@H](C)NC(=O)[C@H](CC(=O)O)NC(=O)[C@H](CCC(=O)O)NC(=O)[C@H](CCC(=O)O)NC(=O)[C@@H]1CCCN1C(=O)[C@H](CCCCNC(=O)CCCCCNC(=O)CC[C@H](NC(=O)CCCCCCCCCCCCCCCCC(=O)O)C(=O)O)NC(=O)[C@H](CCC(=O)O)NC(=O)[C@@H]1CCCN1C(=O)[C@H](C)NC(=O)CC(C)C)[C@@H](C)O)C(=O)N[C@@H](CCC(N)=O)C(=O)N[C@@H](CCCNC(=N)N)C(=O)N[C@@H](Cc1ccc(O)cc1)C(=O)N[C@@H](Cc1ccc(O)cc1)C(=O)N[C@@H](CCC(N)=O)C(=O)N[C@@H](CO)C(=O)N[C@@H](CC(C)C)C(=O)N[C@@H](CCCNC(=N)N)C(=O)N[C@@H](Cc1c[nH]cn1)C(=O)N[C@@H](Cc1ccc(O)cc1)C(=O)N[C@@H](Cc1ccc(O)cc1)C(=O)N[C@@H](CC(N)=O)C(=O)N[C@@H](Cc1c[nH]c2ccccc12)C(=O)N[C@@H](CC(C)C)C(=O)N[C@H](C(=O)N[C@@H](CCCNC(=N)N)C(=O)N[C@@H](CCC(N)=O)C(=O)N[C@@H](CCCNC(=N)N)C(=O)N[C@@H](Cc1ccc(O)cc1)C(N)=O)[C@@H](C)O` [Compound 164, N{alpha-4}-(3-methylbutanoyl)-N{epsilon-7}-(6-[(4S)-4-carboxy-4-(17-carboxyheptadecanamido)butanamido]hexanoyl)-[4A,7K,9E,13T,17I,18Q,22Q,28Y,30W,31L]-hPYY(4-36)] as the molecule, how does the Ki [1] read?
Answer: Its Ki is 2.8 nM.

Question: And the “Sol6” value (Solubility determination)?
Answer: Its value is 9.3 mg/mL.

Question: And the “Sol7” value (Solubility determination)?
Answer: The value was 9.2 mg/mL.
